Laboratory results: publication PMC2270815, “Inhibition of 11βHSD1 with the S-phenylethylaminothiazolone BVT116429 increases adiponectin concentrations and improves glucose homeostasis in diabetic KKA^y mice” (BMC Pharmacology, 2008)

Legend:
[1] = target: T1, 11β HSD1 (11β-hydroxysteroid dehydrogenase type 1) (Mus musculus, UniProt P50172); experiment: in vitro enzyme inhibition assay with purified recombinant enzyme; format: biochemical
T1 construct: gene Hsd11b1; purified recombinant mouse 11β HSD1
T1 sequence (P50172 whole entry): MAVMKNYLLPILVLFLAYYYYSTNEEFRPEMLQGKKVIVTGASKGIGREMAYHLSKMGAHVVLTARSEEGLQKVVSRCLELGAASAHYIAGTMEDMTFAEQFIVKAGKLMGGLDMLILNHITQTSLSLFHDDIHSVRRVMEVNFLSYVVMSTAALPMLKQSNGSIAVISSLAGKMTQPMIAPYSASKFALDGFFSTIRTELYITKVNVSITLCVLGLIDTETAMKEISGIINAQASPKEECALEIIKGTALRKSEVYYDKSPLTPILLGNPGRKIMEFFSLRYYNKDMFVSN

[2] = target: T2, 11β HSD1 (11β-hydroxysteroid dehydrogenase type 1) (Homo sapiens, UniProt P28845); experiment: as above; format: biochemical
T2 construct: gene HSD11B1; purified recombinant human 11β HSD1
T2 sequence (P28845 whole entry): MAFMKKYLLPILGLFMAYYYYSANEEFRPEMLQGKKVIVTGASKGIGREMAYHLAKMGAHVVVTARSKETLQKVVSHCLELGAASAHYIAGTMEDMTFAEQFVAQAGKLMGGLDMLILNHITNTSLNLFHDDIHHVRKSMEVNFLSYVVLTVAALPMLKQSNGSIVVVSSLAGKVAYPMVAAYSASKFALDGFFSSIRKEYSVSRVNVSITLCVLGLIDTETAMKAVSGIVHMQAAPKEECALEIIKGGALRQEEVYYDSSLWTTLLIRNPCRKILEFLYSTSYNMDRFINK

Ki [1]: 36 nM | Ki [2]: 29 nM
SMILES: C[C@H](NC1=NC(=O)[C@@](C)(C(F)(F)F)S1)c1ccccc1F [BVT116429, (S)-2-((S)-1-(2-fluorophenyl)ethylamino)-5-methyl-5-(trifluoromethyl)thiazol-4(5H)-one]
